“And” between values parts separate entries of the source, which are not always exact repeats. Identical values can stand only once.
Legend:
Assay type in all cases: in vivo, human
[1] = system: Chinese patients with T2D; test: Lipids (total cholesterol, LDL cholesterol, triglycerides); conditions: Dulaglutide group; mean
Description: Fig. S8: Change from baseline in lipids levels at week 12.
Data are plotted as means +/- SD. IBI362 3.0 mg n = 7; IBI362 4.5 mg n = 5; IBI362 6.0 mg n = 8; Pooled placebo n = 10; Dulaglutide n = 6. CFB = change from baseline; LDL = low density lipoprotein; SD = standard deviation. Source data are provided as a Source Data file.
Total cholesterol LDL cholesterol Triglycerides
CFB in lipids at week 12 (mmol/L),
(1 picture or pasted object on this page, not shown here) […]
Table 4 Routine laboratory safety assessments […]
Lipids Total cholesterol (TC), triglyceride (TG), high-density lipoprotein cholesterol (HDL-C), and low-density lipoprotein cholesterol (LDL-C). […]

[2] = system: Chinese patients with T2D; test: Mixed-meal tolerance test (MTT): insulin; conditions: 1.5 mg once weekly, n=6
Description: HbA1c (2200101, Bio-Rad, USA), blood glucose (05168791190, Roche Diagnostics, Germany), insulin (12017547122, Roche Diagnostics, Germany), C peptide (03184897190, Roche Diagnostics, Germany), total GLP-1 (GLP-1 [7–36] amide and its metabolite, GLP-1 [9–36] amide, 10-1278-01, Mercodia AB, Sweden) and OXM (AL-139, AnshLabs, USA) tests were performed according to the manufactures’ instruction manuals in a central laboratory (KingMed Diagnostics, Guangzhou, China). HbA1c was measured using a Bio-rad D-100 Haemoglobin Testing System (Bio-rad). Blood glucose was measured using a Roche Cobas c702 analyser (Roche Diagnostics). Insulin and C peptide were measured using a Roche […] analyser (Roche Diagnostics). GLP-1 and OXM were measured using a Tecan Infinite M Plex microplate reader (TECAN).
Standard non-compartmental pharmacokinetics methods were used to analyze IBI362 plasma concentration data using Pkanalix 2020R1 (Lixoft, Antony, France). Secondary efficacy outcomes included change from baseline to week 12 in HbA1c, fasting plasma glucose (FPG), fasting insulin levels, change from baseline to week 12 in post-mixed-meal tolerance test (post-MTT) glucose, insulin, C peptide, GLP-1 and OXM levels, as well as seven-point self-measured blood glucose (SMBG) profile. […]
3. Standard meal test (MTT) collection measures included: insulin, C-peptide, plasma glucose, glucagon, endogenous OXM, and endogenous GLP-1. The sampling points include: fasting, 30 min, 1h, 2h, 3h and 4h.
A total of 9 mL blood will be collected from each blood collection point. See the manual of the central laboratory for the detailed operation process. Fasting state refers to fasting for 10 hours. [ The standard meal is
instant noodles. The master Kang roast beef noodles (bucket noodles) purchased by the sponsor in a unified manner are removed from the oil bag. The noodles are soaked in boiled water and then removed. The seasoning
bag is added and mixed well. The time is counted from the first bite of eating. The noodles are eaten within 10 minutes, and 200 mL of water is drunk; or the instant noodles are directly opened with 200 mL of boiled
water to ensure that the noodles are eaten and the water or soup is drunk]. Visit days when MTT test is performed: 1 day prior to Cycle 1 administration, Day 80 (D80). […]
● Test by central laboratory

[3] = system: Chinese patients with T2D; test: Homeostatic model assessment of insulin resistance (HOMA-IR); conditions: 1.5 mg once weekly, n=6
Excerpt: (§1) Exploratory outcomes included change from baseline in body weight, waist circumference, body-mass index (BMI) and change in homeostatic model assessment of β-cell function (HOMA-β) and insulin resistance (HOMA-IR).

[4] = Body-mass index (BMI); conditions: Dulaglutide group; mean
Excerpt: as §1

[5] = Waist circumference; conditions: 1.5 mg once weekly, n=6
Excerpt: as §1

[6] = Body weight; conditions: 1.5 mg once weekly; for Percent change from baseline in body weight, LS mean / Percent change from baseline in body weight, LS mean (SE): n=6
Description: as §1
The analyses for change from baseline in HbA1c, FPG, post-MTT glucose AUC0–4 h and body weight were performed using the mixed-effect model for repeated measures (MMRM) with least-squares means and standard error provided. The MMRM included the corresponding baseline value, treatment, visit and treatment-by-visit as fixed effects and patient as a random effect. Mean change or mean percent change from baseline were analysed using a restricted maximum likelihood (REML)‐based repeated measures approach in combination with the Newton Raphson Algorithm. The fix effect of visit was fitted as a repeated effect and an unstructured covariance matrix was used. In case of non-converge, matrix like Variance Components and Compound Symmetry will be tested in a subsequent order until model‐convergence is achieved. The Kenward-Roger degree of freedom was used in estimating fixed effects. No missing data imputation was conducted. For HbA1c, FPG and body weight, point estimate of treatment difference versus placebo and 90% CI were provided for each IBI362 dose group and the dulaglutide group, with nominal p values.

Dulaglutide: open-label active reference, subcutaneously once weekly at a fixed dose of 1.5 mg [reference compound]
Change from baseline to week 12 in LDL cholesterol [1]: -0.32 mmol/L | Change from baseline to week 12 in total cholesterol [1]: -0.58 mmol/L | Change from baseline to week 12 in triglycerides [1]: -0.58 mmol/L | Insulin during MTT, mean ([2]; week 12, 0 min): 13.40 μU/mL | Insulin during MTT, mean ([2]; week 12, 30 min): 30.21 μU/mL | Insulin during MTT, mean ([2]; week 12, 60 min): 53.77 μU/mL | Insulin during MTT, mean ([2]; week 12, 120 min): 63.25 μU/mL | Insulin during MTT, mean ([2]; week 12, 180 min): 30.85 μU/mL | Insulin during MTT, mean ([2]; week 12, 240 min): 21.56 μU/mL | Change from baseline to week 12 in HOMA-IR, mean [3]: -1.5 | Change from baseline to week 12 in HOMA-IR, individual ([3]; single patients): 0.346 and 1.1 and -0.8 and -3.0 and -3.5 | Change from baseline to week 12 in BMI [4]: -0.19 kg/m2 | Change from baseline to week 12 in waist circumference, mean [5]: -1.4 cm | Change from baseline to week 12 in waist circumference, individual ([5]; single patients): -0.5 cm and -1.5 cm and -2.6 cm and -4.9 cm and 1.5 cm | Percent change from baseline to week 12 in body weight, single patients ([6]; each line a single patient): 1.8% and -0.6% and 0.5% and 1.3% and -0.126% and -7.2% | Percent change from baseline in body weight, LS mean ([6]; week 4, MMRM): -0.2% | Percent change from baseline in body weight, LS mean ([6]; week 8, MMRM): -0.8% | Percent change from baseline in body weight, LS mean (SE) ([6]; week 12, MMRM): −0.9 (1.4) % and -0.9% | Percent change from baseline in body weight, LS mean (SE) ([6]; week 12, MMRM, listed as dulaglutide): −0.9% | Body weight (percent CFB): ETD versus placebo, LS mean (90% CI) ([6]; week 12, MMRM): 0.2 ( −2.8, 3.1) %

From publication PMC9232612, “A phase 1b randomised controlled trial of a glucagon-like peptide-1 and glucagon receptor dual agonist IBI362 (LY3305677) in Chinese patients with type 2 diabetes” (Nature Communications, 2022)
